Measured values reported in US20240344108A1, “GALACTOSE RAPID QUANTITATIVE DETECTION SYSTEM AND USE THEREOF” (Avalon HepaPOC Limited, priority 2018, published 2024).
Where two headings read alike, the source gives them in different places.

Assays:
galactose dehydrogenase [1] = biological target: T1, galactose dehydrogenase (Pseudomonas fluorescens, UniProt P11886); assay: Stabilizer analysis: linearity test of the galactose test strip system with different stabilizers; details: 0.05%, 2.5% and 5.5%
T1 construct: purchased
T1 sequence (P11886 1-304): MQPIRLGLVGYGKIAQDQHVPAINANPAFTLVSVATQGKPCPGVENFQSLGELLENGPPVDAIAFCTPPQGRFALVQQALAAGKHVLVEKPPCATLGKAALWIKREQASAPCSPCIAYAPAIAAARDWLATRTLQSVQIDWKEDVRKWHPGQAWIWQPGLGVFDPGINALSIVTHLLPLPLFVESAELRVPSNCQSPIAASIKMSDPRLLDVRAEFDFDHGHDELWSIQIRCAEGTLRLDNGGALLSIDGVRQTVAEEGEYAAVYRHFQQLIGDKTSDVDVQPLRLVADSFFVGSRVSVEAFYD
Experimental: Galactochek Blood Galactose Meters, the galactose rapid detection system (galactose dehydrogenase concentration: 13.39%) with different types of stabilizers and concentrations, and YSI 2900 Automatic analyzer.
All chemicals were purchased from Sigma-Aldrich (St. Louis, MO). A stock solution of galactose at 20 mg/mL was prepared with reverse osmosis water. The standard solutions are used to prepare different galactose concentration blood sample. The final concentration of galactose in blood were 200, 450, 800, 1150 and 1500 μg/mL.
Obtain the R^2 value of the linearity test result of different strip test groups to evaluate that which type of stabilizer and concentration were suitable to be used in the system. In addition, % CV≤20% at galactose concentration range of 200-250 μg/mL, and % CV≤15% at galactose concentration range of 251-1500 μg/mL.

[2] = Intravenous injection galactose GSP test (blood galactose after intravenous galactose); type: in vivo; details: human, plasma, 0.5 g/kg, average ± standard error
Experimental: The conventional detection method is used for intravenous injection of 0.5 g/kg galactose after fasting for 8 hours, and measured the galactose concentration in plasma after 60 minutes (Tang H. S. et al. (1992) Digestion, 52:222-231; Ranek L. et al. (1983) Clin. Physiol. 3:173-178). The measurement method comprises: drawing a measurement curve according to a relationship between different concentrations of standard galactose solutions and light absorption values thereof; adding HClO4 in the extracted blood and shaking for mixing, then taking supernatant by centrifugation; adding KOH into the supernatant and shaking for mixing, then taking supernatant by centrifugation again; and then adding galactose dehydrogenase into the supernatant and placing in a dark room for 60 minutes to avoid color reaction inaccuracy for preparing of a specimen and measuring the light absorption value thereof; and finally finding the concentration value by the measurement curve. However, the detection process is complicated and time-consuming, and requires using a variety of medicaments. Therefore, it takes lengthy procedure to learn the detecting result.
The oral administration galactose OGSP values of the subjects in the liver function normal group are in the range 318±27 μg/ml (average±standard error) with the minimum value 18 μg/ml and maximum value 887 μg/ml. […] The oral administration galactose OGSP values of the subjects in the liver function severely impaired group are in the range 777±48 μg/ml with the minimum value 293 μg/ml and maximum value 1499 μg/ml. […] Particularly, the oral administration galactose OGSP value is higher than the intravenous injection galactose GSP value. […] The oral administration galactose OGSP values of the subjects in the liver function severely impaired group are mainly in the range of 681-873 μg/ml (average+2*standard error). […] Therefore, further liver function tests should be taken in the subjects whose OGSP value is greater than 370 μg/ml. In additional to intravencous injection, similar results were obtained by other injection or other administration ways.

clinical = details: human, in vivo
Text: The user needs to drink the oral galactose composition first, wherein the content of the galactose is 1%-80%, preferably 4%-40%, by weight of the total galactose composition, wherein the buffer solution can be not added or can be added to the total weight of 0.001%-5%, and the antioxidant can be not added or can be added to the total weight of 0.001%-5%. Appropriate formula can be prepared by selecting the buffer and the antioxidant, and adding the content of the following ingredients: antioxidant of 0.01M-1M selected from a group including vitamin C, sodium bisulfite, vitamin A, vitamin E, flavonoids, polyphenols, Ethylenediaminetetraacetic acid (EDTA), Diethylenetriaminepentaacetic acid (DTPA), and NTA-Nitrilotriacetate acid (NTA); and/or buffer solution of 0.01M-1M selected from a group including acetic buffer, citrate buffer, phosphate buffer, acetate buffer, carbonate buffer, ascorbic acid buffer, and triethanolamine buffer with adjustment of the pH values ranged 4.0-9.0. A stable formula can be obtained by adding 0.01% citrate buffer and 0.5% sodium bisulfite with a pH value of 4.5. […]
Before sampling biological sample, wipe the fingertips with alcohol cotton. […] In addition, the potential of this readout can be transmitted to the others including medical practitioners through Bluetooth or similar connection through a mobile phone or computer. […]

[3] = average ± standard error, literature values, cited from earlier work
galactose dehydrogenase [4] = biological target: T1, galactose dehydrogenase; assay: Electrochemical response after galactose dehydrogenase immobilization and drying onto the biosensor with protectant; details: protectant used as stabilizer during immobilization and drying
Text: The electrochemistry-based biosensor is designed as a test strip of electrode containing a reaction zone where galactose within the blood sample is to react with galactose metabolic enzymes, leading to the generation of an electrochemical signal. Two galactose-catalyzing enzymes, galactose dehydrogenase (GD) and galactose oxidase (GO) capable of generating electrochemical information, were selected for embedded immobilization and drying onto the electrode to enable electrochemical signal production. […] However, GO catalyzes the oxidation of primary alcohols and sugars (including d-galactose and lactose) in the presence of oxygen, thus impacting the accuracy of quantitation. Aggravatingly, excessive oxygen can compete with the electron mediator of the oxidase-based amperometric strip for electrons, thus resulting in underestimation of galactose measurement. This poses a challenge in point-of-care (POC) scenarios where fresh whole blood sample, rich in oxygen due to prolonged exposure to the atmosphere, or from critically ill patients receiving oxygen support, are utilized.
Galactose dehydrogenase, on the other hand, catalyzes d-galactose with high specificity without the involvement of oxygen. The enzyme was therefore used to be immobilized and dried onto the biosensor. […]

## NCC(=O)O [Glycine, glycine]
Galactose dehydrogenase [1]
  suitability as stabilizer in the system: not suitable

## O=C[C@H](O)[C@@H](O)[C@@H](O)[C@H](O)CO [galactose]
[2]; Mild or moderate impairment of liver function (N = 31)
  concentration at 60 min: 359 ± 10 µg/mL
[2]; Normal liver function (N = 56)
  concentration at 60 min: 174 ± 8 µg/mL
[2]; Severe impairment of liver function (N = 40)
  concentration at 60 min: 667 ± 29 µg/mL
clinical; OGSP maximum value
  concentration at 60 min: 887 µg/mL
clinical; OGSP values mainly in the range
  concentration at 60 min: 510 to 670 µg/mL
[3]; Mild or moderate impairment of liver function
  IV GSP, Digestion 1992; 52: 222-231: 423 ± 26.0 µg/mL
[3]; Normal liver function
  IV GSP, Digestion 1992; 52: 222-231: 247 ± 16.5 µg/mL
[3]; Severe impairment of liver function
  IV GSP, Digestion 1992; 52: 222-231: 630 ± 41.0 µg/mL

## OC[C@H]1O[C@@](CO)(O[C@H]2O[C@H](CO)[C@@H](O)[C@H](O)[C@H]2O)[C@@H](O)[C@@H]1O [Sucrose, sucrose]
Galactose dehydrogenase [1]
  suitability as stabilizer in the system: not suitable

## OC[C@@H](O)[C@@H](O)[C@H](O)[C@H](O)CO [Mannitol, mannitol]
Galactose dehydrogenase [1]
  suitability as stabilizer in the system: not suitable

## OC[C@H]1O[C@H](O[C@H]2O[C@H](CO)[C@@H](O)[C@H](O)[C@H]2O)[C@H](O)[C@@H](O)[C@@H]1O [Trehalose, trehalose]
Galactose dehydrogenase [4]
  galactose-dependent electrochemical signal of GD-based biosensor: successfully preserved the activity of enzyme
